Test results reported in patent US20250082654A1, “AZD3355 (LESOGABERAN) FOR TREATMENT AND PREVENTION OF NONALCOHOLIC STEATOHEPATITIS (NASH), LIVER FIBROSIS, AND OTHER LIVER CONDITIONS” (Icahn School of Medicine at Mount Sinai, priority 2018, published 2025).

Tested on: NASH model mice
Assay: NASH mouse model, histopathological scoring of liver sections
Type: in vivo
Details: for Hepatocyte ballooning ± SE: score 0-2; for Portal inflammation ± SE / Lobular Inflammation ± SE / Steatosis ± SE: score 0-3; for Fibrosis Stage ± SE: score 0-4; for NAFLD activity score (NAS) ± SE: score 0-8
Experimental: Four separate groups of mice were given either 0.5% methylcellulose (as Vehicle) or AZD3355 at 10 mg/kg (low dose) body weight of mice or 30 mg/kg (high dose) body weight of mice by twice daily (BID (5 days/week)) and OCA at 30 mg/kg body weight of mice by daily (QD (5 days/week)) through oral route for up to next 12 weeks (week 13 to week 24). Them last group of mice were not given any drug or vehicle treatment, as No Tx—24 weeks and maintained in parallel with treatment/vehicle groups. Usually all doses were given at early morning and the second daily dose of AZD3355 at evening (10 hours of intervals). All animals were closely monitored the health conditions and behavior.
A piece of tissue from large liver lobe was fixed in 10% Formalin Buffered (Astral Diagnostics Incorporated NJ) embedded in paraffin and microtome sectioning were performed. Slides containing tissue sections were baked at 60° C. for 1 hour and re-hydrated through xylene followed by graded ethanol (100%, 95%, 85% and 70%) into distilled water and processed in either Picrosirius red/Fast green or hematoxylin and eosin staining.
A total of 2 sections/animal were stained with H&E staining performed by standard protocol.
Steatosis, hepatocyte ballooning, lobular inflammation, portal inflammation and fibrosis of picroserious red/fast green and H&E stained liver section were scored according to the NASH Clinical Research Network (NASH CRN) scoring system in a blinded fashion by an expert hepato-pathologist in Icahn School of Medicine at Mount Sinai. NAFLD activity score (NAS) was calculated according to Brunt criteria and range from 0-8. NAS was calculated by the sum of scores of steatosis (0-3), hepatocyte ballooning (0-2) and lobular inflammation (0-3). NAS score of >5.0 strongly correlated with “definite-NASH” whereas <3 correlated with “not-NASH”. Fibrosis (0-4) or portal inflammation (0-3) scores were assessed separately and not included in NAS.

NC[C@@H](F)C[PH](=O)O [AZD3355, [(2R)-3-amino-2-fluoropropyl] phosphinic acid]
Hepatocyte ballooning ± SE (♀ Mice, 10 mg/kg, vehicle 1.2 ± 0.1): 1.3 ± 0.1
Portal inflammation ± SE (♀ Mice, 10 mg/kg, vehicle 1.6 ± 0.1): 1.6 ± 0.1
Lobular Inflammation ± SE (♀ Mice, 10 mg/kg, vehicle 2.3 ± 0.1): 2.5 ± 0.1
Steatosis ± SE (♀ Mice, 10 mg/kg, vehicle 2.5 ± 0.1): 2.6 ± 0.1
Fibrosis Stage ± SE (♀ Mice, 10 mg/kg, vehicle 3.0 ± 0.1): 3.1 ± 0.1
NAFLD activity score (NAS) ± SE (♀ Mice, 10 mg/kg, vehicle 6.1 ± 0.4): 6.4 ± 0.4
Steatohepatitis Grade ± SE (♀ Mice, 10 mg/kg, vehicle 1.8 ± 0.2): 2.1 ± 0.2
Hepatocyte ballooning ± SE (♀ Mice, 30 mg/kg twice daily, vehicle 1.2 ± 0.1): 1.3 ± 0.1
Portal inflammation ± SE (♀ Mice, 30 mg/kg twice daily, vehicle 1.6 ± 0.1): 2.0 ± 0.0
Lobular Inflammation ± SE (♀ Mice, 30 mg/kg twice daily, vehicle 2.3 ± 0.1): 2.7 ± 0.1
Steatosis ± SE (♀ Mice, 30 mg/kg twice daily, vehicle 2.5 ± 0.1): 2.3 ± 0.1
Fibrosis Stage ± SE (♀ Mice, 30 mg/kg twice daily, vehicle 3.0 ± 0.1): 3.1 ± 0.1
NAFLD activity score (NAS) ± SE (♀ Mice, 30 mg/kg twice daily, vehicle 6.1 ± 0.4): 6.4 ± 0.3
Steatohepatitis Grade ± SE (♀ Mice, 30 mg/kg twice daily, vehicle 1.8 ± 0.2): 2.2 ± 0.2
Hepatocyte ballooning ± SE (♂ Mice, 10 mg/kg, vehicle 1.7 ± 0.1): 1.7 ± 0.1
Portal inflammation ± SE (♂ Mice, 10 mg/kg, vehicle 2.0 ± 0.1): 1.9 ± 0.0
Steatosis ± SE (♂ Mice, 10 mg/kg, vehicle 2.7 ± 0.1): 2.7 ± 0.1
Lobular Inflammation ± SE (♂ Mice, 10 mg/kg, vehicle 2.8 ± 0.1): 2.8 ± 0.1
Fibrosis Stage ± SE (♂ Mice, 10 mg/kg, vehicle 3.3 ± 0.1): 3.2 ± 0.1
NAFLD activity score (NAS) ± SE (♂ Mice, 10 mg/kg, vehicle 7.2 ± 0.3): 7.2 ± 0.3
Steatohepatitis Grade ± SE (♂ Mice, 10 mg/kg, vehicle 2.6 ± 0.2): 2.7 ± 0.1
Hepatocyte ballooning ± SE (♂ Mice, 30 mg/kg twice daily, vehicle 1.7 ± 0.1): 1.8 ± 0.1
Portal inflammation ± SE (♂ Mice, 30 mg/kg twice daily, vehicle 2.0 ± 0.1): 2.0 ± 0.2
Steatosis ± SE (♂ Mice, 30 mg/kg twice daily, vehicle 2.7 ± 0.1): 2.4 ± 0.1
Lobular Inflammation ± SE (♂ Mice, 30 mg/kg twice daily, vehicle 2.8 ± 0.1): 2.6 ± 0.2
Fibrosis Stage ± SE (♂ Mice, 30 mg/kg twice daily, vehicle 3.3 ± 0.1): 3.0 ± 0.0
NAFLD activity score (NAS) ± SE (♂ Mice, 30 mg/kg twice daily, vehicle 7.2 ± 0.3): 6.8 ± 0.5
Steatohepatitis Grade ± SE (♂ Mice, 30 mg/kg twice daily, vehicle 2.6 ± 0.2): 2.5 ± 0.2
